Measurements from BindingDB's records for patent US10544130 (Merck Sharp & Dohme Corp., 2020).

Legend:
[1] = target: Metallo-beta-lactamase VIM-1 (Pseudomonas aeruginosa, UniProt A0A0F7KYQ8)
[2] = target: Metallo-beta-lactamase type 2 (Klebsiella pneumoniae, UniProt C7C422)
Sequence of Metallo-beta-lactamase type 2 (C7C422 whole entry): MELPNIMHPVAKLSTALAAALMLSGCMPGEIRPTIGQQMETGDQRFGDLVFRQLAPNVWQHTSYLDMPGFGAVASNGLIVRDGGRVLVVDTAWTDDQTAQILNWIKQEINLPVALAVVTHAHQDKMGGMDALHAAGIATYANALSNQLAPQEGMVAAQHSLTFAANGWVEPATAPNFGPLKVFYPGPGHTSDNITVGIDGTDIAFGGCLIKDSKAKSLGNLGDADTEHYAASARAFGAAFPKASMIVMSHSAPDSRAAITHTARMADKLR

| Compound | IC50 [1] [nM] | IC50 [2] [nM] |
| --- | --- | --- |
| Nc1ncccc1-c1ccc(S(=O)(=O)N[C@H]2C[C@@H]2N)c(S(N)(=O)=O)c1-c1nn[nH]n1 [US10544130, Example 216] | 0.269 | 0.237 |
| N#Cc1cccc(B(O)O)c1N [US10544130, Example 11] | 0.05 | 0.019 |
| COc1ccc(CN(Cc2ccc(OC)cc2)S(=O)(=O)c2c(S(=O)(=O)N[C@H]3CN(C(=O)OC(C)(C)C)C[C@@H]3NC(=O)OC(C)(C)C)ccc(I)c2-c2nnn(Cc3ccc(OC)cc3)n2)cc1 [US10544130, Example 82] | – | 0.049 |
| OB(O)c1cccc2[nH]cnc12 [US10544130, Example 12] | 0.102 | – |
| C[N+]1(CCN)CC[C@@H](NS(=O)(=O)c2ccc(-c3cccc4[nH]c(N)nc34)c(-c3nn[nH]n3)c2S(N)(=O)=O)C1 (stereo not given in full) [US10544130, Example 248] | – | 0.011 |
| COc1ccc(CN(Cc2ccc(OC)cc2)S(=O)(=O)c2c(S(=O)(=O)N[C@@H]3CCN(C(=O)OC(C)(C)C)C3)ccc(I)c2-c2nnn(Cc3ccc(OC)cc3)n2)cc1 [US10544130, Example 72] | – | 0.02 |

The next lines start with results.

| IC50 [1] [nM] | Compound | IC50 [2] [nM] |
| --- | --- | --- |
| 0.135 | COc1ccc(CN(Cc2ccc(OC)cc2)S(=O)(=O)c2c(S(=O)(=O)NC[C@@H](CNC(=O)OC(C)(C)C)NC(=O)OC(C)(C)C)ccc(I)c2-c2nnn(Cc3ccc(OC)cc3)n2)cc1 [US10544130, Example 81] | – |
| 0.158 | COc1ccc(CN(Cc2ccc(OC)cc2)S(=O)(=O)c2c(S(=O)(=O)NC[C@H](CO)NC(=O)OCc3ccccc3)ccc(I)c2-c2nnn(Cc3ccc(OC)cc3)n2)cc1 [US10544130, Example 80] | – |
